Test results published in patent US8604085B2, “Bupropion hydrobromide polymorphs” (Valeant International Bermuda, priority 2008, dated 2013).

Assay: Precipitation from oversaturated solution at 100° C., cooling rate 0.45° C./min
Format: physicochemical
Protocol: Bupropion hydrobromide Form I was dissolved at 100° C. in solvent to obtain the oversaturated solution. The cooling rate applied was 0.45° C./min. The samples were filtered and analyzed by X-ray diffraction. Form I converts into Form VI using 1-Propanol, and into Form V using 1,4-Dioxane. The other experiments yield only Form I. See Table 55 for Form I precipitation results by oversaturated solution. […]

Br.CC(NC(C)(C)C)C(=O)c1cccc(Cl)c1 (single isomer, unassigned) [Form I]
Precipitation Result (solvent 1,4-Dioxane): Form V | Precipitation Result (solvent 1-Butanol): Form I | Precipitation Result (solvent 1-Methyl-2-Pyrrolidone): Form I | Precipitation Result (solvent 1-Propanol): Form VI | Precipitation Result (solvent 2-Methoxy Ethanol): Form I | Precipitation Result (solvent 2-Methyl-1-Propanol): Form I | Precipitation Result (solvent (±)2-Butanol): Form I | Precipitation Result (solvent Dimethyl formamide): Form I | Precipitation Result (solvent Dimethyl sulfoxyde): Form I | Precipitation Result (solvent Nitromethane): Form I | Precipitation Result (solvent Water): Form I | Precipitation Result (solvent p-Xylene): Form I
